Data published in ChEMBL document CHEMBL1201862, “PubChem BioAssay data set” (2004).
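Step 1: Grow cells in 96-well plates. Step 2: Expose to compound for 48 hours at 5 concentrations. Step 3: Interpolate endpoints linearly; if unreached, use highest concentration. GI50 marks 50% less growth.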 The source made the active and inactive calls. No stated cut-off is given here; in the data, active = GI50 up to about 1.1 µM and inactive = higher.

Experiments:
Test in all cases: DTP human tumour cell line panel, 48 h
MDA-N = tested on: MDA-N
UO-31 = tested on: UO-31
OVCAR-4 = tested on: OVCAR-4
DU-145 = tested on: DU-145
CCRF-CEM = tested on: CCRF-CEM
A549 = tested on: A549
ACHN = tested on: ACHN
NCI/ADR-RES = tested on: NCI/ADR-RES
PC-3 = tested on: PC-3
OVCAR-5 = tested on: OVCAR-5
SF-268 = tested on: SF-268
OVCAR-8 = tested on: OVCAR-8
Malme-3M = tested on: Malme-3M
A498 = tested on: A498
SF-295 = tested on: SF-295
SNB-75 = tested on: SNB-75
UACC-257 = tested on: UACC-257
NCI-H460 = tested on: NCI-H460
RXF 393 = tested on: RXF 393
HOP-92 = tested on: HOP-92

Measured: GI50

O=C(O)CCC(NC(=O)c1ccc(CNc2nc3ccccc3nc2C(=O)O)cc1)C(=O)O (configuration not stated)
inactive: MDA-N > 100 µM | UO-31 > 100 µM | OVCAR-4 > 100 µM | DU-145 > 100 µM | CCRF-CEM > 100 µM | A549 > 100 µM | ACHN > 100 µM | NCI/ADR-RES > 100 µM | PC-3 > 100 µM | OVCAR-5 > 100 µM | SF-268 > 100 µM | OVCAR-8 > 100 µM | Malme-3M > 100 µM | A498 > 100 µM | SF-295 > 100 µM | SNB-75 > 100 µM | UACC-257 > 100 µM

CCN(CC)CCn1c(C(C)(C)C)nc2ccccc21
inactive: NCI-H460 > 100 µM | MDA-N > 100 µM | UO-31 > 100 µM | RXF 393 > 100 µM | OVCAR-4 > 100 µM | DU-145 > 100 µM | CCRF-CEM > 100 µM | A549 > 100 µM | ACHN > 100 µM | NCI/ADR-RES > 100 µM | PC-3 > 100 µM | HOP-92 > 100 µM | OVCAR-5 > 100 µM | SF-268 > 100 µM | OVCAR-8 > 100 µM | Malme-3M > 100 µM | SF-295 > 100 µM | SNB-75 > 100 µM | UACC-257 > 100 µM

Cc1cc2c(c(C(=O)NCC(=O)N[C@@H](C)C(=O)OCc3ccccc3)c1)Oc1c(cc(C)cc1C(=O)NCC(=O)N[C@@H](C)C(=O)OCc1ccccc1)S2
inactive: NCI-H460 > 100 µM | MDA-N > 100 µM | UO-31 > 100 µM | RXF 393 20.1 µM | OVCAR-4 > 100 µM | DU-145 > 100 µM | CCRF-CEM > 100 µM | A549 > 100 µM | ACHN > 100 µM | NCI/ADR-RES > 100 µM | PC-3 > 100 µM | OVCAR-5 > 100 µM | SF-268 37.2 µM | OVCAR-8 > 100 µM | Malme-3M 16.1 µM | A498 > 100 µM | SF-295 > 100 µM | SNB-75 15.8 µM | UACC-257 > 100 µM

CCn1c(SCC(=O)NNC(=S)NC)nc2ccccc2c1=O
inactive: NCI-H460 18.6 µM | MDA-N > 100 µM | UO-31 62.2 µM | RXF 393 34 µM | OVCAR-4 76.4 µM | DU-145 > 100 µM | CCRF-CEM > 100 µM | A549 88.9 µM | ACHN > 100 µM | NCI/ADR-RES > 100 µM | PC-3 96.8 µM | OVCAR-5 > 100 µM | SF-268 > 100 µM | OVCAR-8 > 100 µM | Malme-3M > 100 µM | A498 69 µM | SF-295 > 100 µM | SNB-75 > 100 µM | UACC-257 > 100 µM

CCOC(=O)c1c(-c2ccc(OC)c(O)c2)c(C#N)c(=S)n(C2OC(CO)C(O)C(O)C2O)c1-c1ccccc1 (configuration not stated)
inactive: NCI-H460 > 100 µM | MDA-N > 100 µM | UO-31 > 100 µM | RXF 393 > 100 µM | OVCAR-4 > 100 µM | DU-145 > 100 µM | CCRF-CEM > 100 µM | A549 > 100 µM | ACHN > 100 µM | NCI/ADR-RES > 100 µM | PC-3 > 100 µM | SF-268 > 100 µM | A498 > 100 µM | SF-295 > 100 µM | UACC-257 > 100 µM

COc1c(O)c(OC)c2oc(-c3ccc(O)cc3)c(OC)c(=O)c2c1O
inactive: NCI-H460 45.7 µM | MDA-N 79.4 µM | UO-31 34.7 µM | DU-145 29.3 µM | CCRF-CEM 37.5 µM | A549 44.2 µM | ACHN 33.6 µM | NCI/ADR-RES 61 µM | PC-3 48.6 µM | OVCAR-5 > 100 µM | SF-268 8.73 µM | OVCAR-8 38 µM | Malme-3M 13.4 µM | A498 30.3 µM | SF-295 > 100 µM | UACC-257 76.2 µM

CCn1c(SCC(=O)N/N=C2\SCC(=O)N2c2ccc(C)cc2)nc2ccccc2c1=O
inactive: NCI-H460 24.7 µM | MDA-N 23.6 µM | UO-31 15.1 µM | RXF 393 17.4 µM | OVCAR-4 18.2 µM | DU-145 28.2 µM | CCRF-CEM 34 µM | A549 21.2 µM | ACHN 18.6 µM | NCI/ADR-RES 19.8 µM | PC-3 21.3 µM | OVCAR-5 20.5 µM | SF-268 20.3 µM | OVCAR-8 17 µM | Malme-3M 21.9 µM | A498 20.8 µM | SF-295 18.6 µM | SNB-75 17.1 µM | UACC-257 15.7 µM

Oc1ccc2ccccc2c1/N=N/c1ccc(/N=N/c2ccccc2)cc1
inactive: MDA-N 50 µM | UO-31 59 µM | RXF 393 > 100 µM | OVCAR-4 > 100 µM | DU-145 > 100 µM | CCRF-CEM > 100 µM | A549 74.5 µM | ACHN > 100 µM | NCI/ADR-RES > 100 µM | PC-3 > 100 µM | OVCAR-5 > 100 µM | SF-268 > 100 µM | OVCAR-8 > 100 µM | Malme-3M > 100 µM | A498 > 100 µM | SF-295 > 100 µM | SNB-75 70.1 µM | UACC-257 > 100 µM
